“And” between values parts separate entries of the source, which are not always exact repeats. Equal entries are not always repeated.
Biological target: T1, MyD88^TIR (Homo sapiens, UniProt Q99836)
T1 construct: MyD88 (residues 148–296); 6xHis; made in house; host or cells: E. coli BL21 (DE3)
Test: T‐Surf phage library (P8 and P3) selection against MyD88^TIR, four rounds, NGS read counts
Assay type: binding
Settings: for P3_MyD88 Rank (after) / P3_MyD88 Rank (before): P3 library; for Population: 4th round of selection against MyD88 TIR, share of NGS reads
In short: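 P8 and P3 T‐Surf libraries panned against plate-coated TIR domains (5 µg mL^−1), 1 h binding at RT, acid elution and TG1/helper-phage amplification per round. After four rounds, pools were PCR-barcoded and sequenced (NovaSeq, 100 bp paired-end, Phred ≥30); peptides ranked by read counts.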

[1] = 4R selection against MyD88, rank after grouping
[2] = 4R selection against MyD88, rank before grouping
[3] = P3_MyD88 pool: P3 T-Surf phage library
[4] = selection against MyD88, rank by count after grouping
[5] = selection against MyD88, rank by count before grouping
[6] = P8_MyD88: rank by count after grouping
[7] = P8_MyD88: rank by count before grouping
[8] = selection against MyD88 TIR, rank by count after grouping
[9] = selection against MyD88 TIR, rank by count before grouping
[10] = P3_MyD88: rank by count after grouping
[11] = P3_MyD88: rank by count before grouping
[12] = selection against MyD88, rank after grouping
[13] = selection against MyD88, rank before grouping

T1 sequence (Q99836 148-296): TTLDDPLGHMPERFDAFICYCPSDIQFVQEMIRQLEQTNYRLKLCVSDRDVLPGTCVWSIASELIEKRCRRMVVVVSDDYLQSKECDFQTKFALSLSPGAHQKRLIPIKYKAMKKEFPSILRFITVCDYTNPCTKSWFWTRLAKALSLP

**Q.** NHDLDLPRGKAIKPEILG was tested. Which “P3_MyD88 Rank (after)” value [1] did it give?
**A.** 606

**Q.** What about the “P3_MyD88 Rank (before)” value [2] of the same sequence?
**A.** 3460

**Q.** How did the Population [3] turn out when NHHLDLPRGKAIKPEILG was run?
**A.** 0.00524%

**Q.** Which results are given for NHHLDPPRGKANKPGILG?
**A.** P3_MyD88 Rank (after) [4]: 702; P3_MyD88 Rank (before) [5]: 3461

**Q.** NLSGWHILDGFLFDEF was tested. Which “Rank (after)” value [6] did it give?
**A.** 125

**Q.** And the “Rank (before)” value [7]?
**A.** 134

**Q.** And the Population (P8_MyD88 pool: P8 T-Surf phage library)?
**A.** 0.0131%

**Q.** Which “Rank (after)” value [6] does the source give for NNFSAFLFEALFENGI here?
**A.** 181

**Q.** And the “Rank (before)” value [7]?
**A.** 240

**Q.** How did the “P3_MyD88 Rank (after)” value [8] turn out when NNLFNELVSKNIRTLM was run?
**A.** 237

**Q.** And the “P3_MyD88 Rank (before)” value [9]?
**A.** 3559

**Q.** Which “Rank (after)” value (P8_MyD88: rank by NGS read count after grouping) does the source give for NPADLDWFYERLVSLF here?
**A.** 939

**Q.** And the “Rank (before)” value (P8_MyD88: rank by NGS read count before grouping)?
**A.** 3878

**Q.** NQCRNALTAAANLSGC was tested. Which “Rank (after)” value [10] did it give?
**A.** 149

**Q.** What about the “Rank (before)” value [11] of the same sequence?
**A.** 3467

**Q.** How did the “Rank (after)” value [10] turn out when NQCRNFLTAAANLSGW was run?
**A.** 164

**Q.** What about the “Rank (before)” value [11] of the same sequence?
**A.** 3465

**Q.** Which “P3_MyD88 Rank (after)” value [4] does the source give for NQGRNALTAAADLSGW here?
**A.** 697

**Q.** And the “P3_MyD88 Rank (before)” value [5]?
**A.** 3541

**Q.** Which “P3_MyD88 Rank (after)” value [8] does the source give for NQLRNAQTAAANLSGW here?
**A.** 233

**Q.** What about the “P3_MyD88 Rank (before)” value [9] of the same sequence?
**A.** 3463

**Q.** How did the “P3_MyD88 Rank (after)” value [8] turn out when NQQRFGGKVDAWKAAL was run?
**A.** 281

**Q.** And the “P3_MyD88 Rank (before)” value [9]?
**A.** 3542

**Q.** Which Population [3] does the source give for NQWHNALTAAANLSGW here?
**A.** 0.00291%

**Q.** For NQWLNSLTAPANPSDW, which “Rank (after)” value [10] is on record?
**A.** 396

**Q.** What about the “Rank (before)” value [11] of the same sequence?
**A.** 3469

**Q.** For NQWPNALTAAANLRGW, which “Rank (after)” value [10] is on record?
**A.** 132

**Q.** And the “Rank (before)” value [11]?
**A.** 3534

**Q.** How did the “P3_MyD88 Rank (after)” value [12] turn out when NQWRFGSKVDAWKAAL was run?
**A.** 577

**Q.** And the “P3_MyD88 Rank (before)” value [13]?
**A.** 3470

**Q.** What does the source list for NQWRHALTAEANLSGW?
**A.** Rank (after) [10]: 408; Rank (before) [11]: 3472

**Q.** Which results are given for NQWRKALTSAANLSGW?
**A.** P3_MyD88 Rank (after) [4]: 703; P3_MyD88 Rank (before) [5]: 3528

**Q.** What does the source list for NQWRNALIAAVNLSGC?
**A.** P3_MyD88 Rank (after) [4]: 700; P3_MyD88 Rank (before) [5]: 3485

**Q.** What does the source list for NQWRNALTAAAHLTGW?
**A.** P3_MyD88 Rank (after) [4]: 721; P3_MyD88 Rank (before) [5]: 3494

**Q.** How did the Population [3] turn out when NQWRNALTAAANLA was run?
**A.** 0.00291%

**Q.** With NQWRNALTAAANLGGL as the sequence, how does the “P3_MyD88 Rank (after)” value [4] read?
**A.** 701

**Q.** What about the “P3_MyD88 Rank (before)” value [5] of the same sequence?
**A.** 3513

**Q.** NQWRNALTAAANLIGR was tested. Which “P3_MyD88 Rank (after)” value [12] did it give?
**A.** 532

**Q.** And the “P3_MyD88 Rank (before)” value [13]?
**A.** 3499

**Q.** How did the Population [3] turn out when NQWRNALTAAANLSGC was run?
**A.** 0.00291%

**Q.** Which results are given for NQWRNALTAAANLSGEFG?
**A.** P3_MyD88 Rank (after) [1]: 604; P3_MyD88 Rank (before) [2]: 3505

**Q.** How did the Population [3] turn out when NQWRNALTAAANLSGW was run?
**A.** 0.00437% and 0.00378% and 0.0032%

**Q.** And the “P8_MyD88 Rank (after)” value (P8 library, selection against MyD88, rank by count after grouping)?
**A.** 734

**Q.** What about the “P8_MyD88 Rank (before)” value (P8 library, selection against MyD88, rank by count before grouping) of the same sequence?
**A.** 3881

**Q.** NQWRNALTAAANLSLS was tested. Which “P3_MyD88 Rank (after)” value [1] did it give?
**A.** 675

**Q.** What about the “P3_MyD88 Rank (before)” value [2] of the same sequence?
**A.** 3507

**Q.** How did the Population [3] turn out when NQWRNALTAAANLV was run?
**A.** 0.00378%

**Q.** Which Population [3] does the source give for NQWRNALTAAASLSGW here?
**A.** 0.00291%

**Q.** What does the source list for NQWRNALTAAAYMSCR?
**A.** Rank (after) [10]: 463; Rank (before) [11]: 3492

**Q.** For NQWRNALTATANLSGC, which “Rank (after)” value [10] is on record?
**A.** 419

**Q.** And the “Rank (before)” value [11]?
**A.** 3517

**Q.** With NQWRNALTEAAHLSGW as the sequence, how does the “P3_MyD88 Rank (after)” value [1] read?
**A.** 663

**Q.** And the “P3_MyD88 Rank (before)” value [2]?
**A.** 3520

**Q.** How did the Population [3] turn out when NQWRNALTKVASL was run?
**A.** 0.00378%

**Q.** NQWRNAQTAAANLNGW was tested. Which “P3_MyD88 Rank (after)” value [8] did it give?
**A.** 256

**Q.** What about the “P3_MyD88 Rank (before)” value [9] of the same sequence?
**A.** 3525

**Q.** For NQWRNELTPAANLSGW, which “P3_MyD88 Rank (after)” value [4] is on record?
**A.** 698

**Q.** What about the “P3_MyD88 Rank (before)” value [5] of the same sequence?
**A.** 3527

**Q.** For NQWRNSRTAAANLSGW, which “Rank (after)” value [10] is on record?
**A.** 122

**Q.** What about the “Rank (before)” value [11] of the same sequence?
**A.** 3476

**Q.** With NQWRSSPTAWASLSFA as the sequence, how does the “P3_MyD88 Rank (after)” value [12] read?
**A.** 530

**Q.** And the “P3_MyD88 Rank (before)” value [13]?
**A.** 3474

**Q.** For NRWRNALTAAANLRGG, which “P3_MyD88 Rank (after)” value [12] is on record?
**A.** 510

**Q.** And the “P3_MyD88 Rank (before)” value [13]?
**A.** 3457

**Q.** For NSFREGLWRLVELSKK, which “P3_MyD88 Rank (after)” value [12] is on record?
**A.** 535

**Q.** And the “P3_MyD88 Rank (before)” value [13]?
**A.** 3557

**Q.** Which “Rank (after)” value [6] does the source give for NSSWALEELVKIMEAM here?
**A.** 186

**Q.** And the “Rank (before)” value [7]?
**A.** 239

**Q.** How did the Population [3] turn out when NVHESEIIKEIVDTIV was run?
**A.** 0.00291%
